Experimental data published in the NIST ThermoML archive (doi:10.1016/j.jct.2016.04.014).

Test: xn = mol fraction of the nth substance listed
Conditions: Liquid, Vibrating tube method

CCCCCCCC [octane] + CCCCCCC
mass density [kg/m3]
Conditions | 100 kPa | 500 kPa | 5000 kPa | 10000 kPa | 15000 kPa | 20000 kPa | 25000 kPa | 30000 kPa | 35000 kPa | 40000 kPa
293.15 K, x2 = 0.25 | 698.22 | 698.6 | 702.4 | 706.4 | 710.2 | 713.8 | 717.2 | 720.4 | 723.6 | 726.6
293.15 K, x2 = 0.5002 | 693.9 | 694.3 | 698.1 | 702.2 | 706 | 709.7 | 713.2 | 716.5 | 719.6 | 722.7
293.15 K, x2 = 0.7502 | 689 | 689.4 | 693.4 | 697.5 | 701.4 | 705.1 | 708.7 | 712 | 715.2 | 718.4
303.15 K, x2 = 0.25 | 690.1 | 690.4 | 694.5 | 698.8 | 702.8 | 706.6 | 710.2 | 713.6 | 716.9 | 720.1
303.15 K, x2 = 0.5002 | 685.6 | 686 | 690.2 | 694.5 | 698.6 | 702.5 | 706.1 | 709.6 | 712.9 | 716.1
303.15 K, x2 = 0.7502 | 680.7 | 681 | 685.3 | 689.7 | 693.9 | 697.8 | 701.6 | 705.1 | 708.5 | 711.7
313.15 K, x2 = 0.25 | 681.8 | 682.2 | 686.5 | 691.1 | 695.4 | 699.4 | 703.2 | 706.8 | 710.2 | 713.5
313.15 K, x2 = 0.5002 | 677.3 | 677.7 | 682.1 | 686.8 | 691.1 | 695.2 | 699.1 | 702.7 | 706.2 | 709.6
313.15 K, x2 = 0.7502 | 672.2 | 672.6 | 677.2 | 681.9 | 686.3 | 690.5 | 694.4 | 698.1 | 701.7 | 705.1
323.15 K, x2 = 0.25 | 673.4 | 673.8 | 678.5 | 683.4 | 687.9 | 692.1 | 696.1 | 699.9 | 703.6 | 707
323.15 K, x2 = 0.5002 | 668.7 | 669.2 | 674 | 678.9 | 683.6 | 687.9 | 692 | 695.8 | 699.5 | 703
323.15 K, x2 = 0.7502 | 663.5 | 664 | 668.9 | 674 | 678.7 | 683.1 | 687.3 | 691.2 | 694.9 | 698.5
333.15 K, x2 = 0.25 | 664.9 | 665.4 | 670.4 | 675.6 | 680.4 | 684.9 | 689.2 | 693.2 | 696.9 | 700.6
333.15 K, x2 = 0.5002 | 660.2 | 660.6 | 665.8 | 671.1 | 676 | 680.6 | 684.9 | 689 | 692.8 | 696.5
333.15 K, x2 = 0.7502 | 654.8 | 655.3 | 660.6 | 666 | 671.1 | 675.8 | 680.2 | 684.3 | 688.2 | 692
353.15 K, x2 = 0.25 | 647.5 | 648.1 | 653.9 | 659.9 | 665.4 | 670.5 | 675.2 | 679.6 | 683.7 | 687.7
353.15 K, x2 = 0.5002 | 642.5 | 643.1 | 649.1 | 655.2 | 660.8 | 666 | 670.8 | 675.3 | 679.5 | 683.6
353.15 K, x2 = 0.7502 | 636.9 | 637.4 | 643.6 | 649.9 | 655.7 | 661 | 665.9 | 670.4 | 674.7 | 678.9
373.15 K, x2 = 0.25 | – | 630.3 | 637.1 | 644.1 | 650.3 | 656 | 661.2 | 666.1 | 670.7 | 675.1
373.15 K, x2 = 0.5002 | – | 625 | 632 | 639.2 | 645.6 | 651.4 | 656.7 | 661.7 | 666.3 | 670.8
373.15 K, x2 = 0.7502 | – | 619 | 626.3 | 633.6 | 640.2 | 646.2 | 651.7 | 656.7 | 661.5 | 666
